Assay results from patent publication US7553837B2, “Phenylazole compounds production process and antioxidants” (Nippon Soda Co., Ltd., priority 2003, dated 2009).

Tests used:
[1] = tested on: lipid peroxidation in retina homogenate; experiment: Retina migration properties: ex vivo retinal lipid peroxidation production inhibition; type: in vivo; conditions: SD male rats, retina taken after 30 minutes
Experimental: Retina migration properties of the compounds of the present invention were evaluated. To SD male rats (one group: 3 rats, 6 weeks old), a solution or suspension prepared by dissolving or suspending each of the test compounds in a 0.1N hydrochloric acid solution or a 1% poly oxy ethylene hydrogenated castor oil (NIKKOL HCO-60) solution was orally administered. After 30 minutes, both eyes were extracted and the retina was separated under ice cooling. A 5% homogenate solution of the retina was prepared in a 0.1M tris-hydrochloric acid buffer (pH 7.4) under ice cooling using a polytron homogenizer for a trace amount (NS-310E: manufactured by Nichion Irika Kiki Co., Ltd.) and, after autoxidation at 37° C. for one hour, the amount of lipid peroxidation produced was determined by a thiobarbituric acid process (MASUGI et al., vitamin 51, 21-29, 1977). A 30% inhibitory dose (ID30) was determined from the inhibition ratio at each dose. As is apparent from the results, the compounds of the present invention have an ex vivo retinal lipid peroxidation production inhibitory action and is also excellent in retina migration properties.

[2] = tested on: lipid peroxidation activity of each tissue homogenate (brain, heart and kidney); experiment: Tissue migration properties: ex vivo lipid peroxidation inhibition in brain, heart and kidney homogenates; conditions: SD male rats, 100 mg/kg intraperitoneally, 30 minutes after administration
Experimental: An in vitro lipid peroxidation inhibition of the compounds of the present invention was evaluated by measuring a lipid peroxidation activity in a rat brain homogenate according to a process of Malvy, c., et al., Biochemical and Biophysical Research Communications, 1980, Vol. 95, p. 734-737. That is, a rat brain was extracted and a 5-fold amount of an aqueous phosphoric acid buffered saline solution (pH 7.4) (hereinafter abbreviated to PBS) was added to the brain under ice cooling, followed by homogenization using a Teflon homogenizer and further centrifugation at 10,000 g for 20 minutes to prepare a brain homogenate as a supernatant. To the brain homogenate thus prepared, 500 μM cysteine, 5 μM sulfuric acid monobasic iron and 100 mM KCl were added, followed by incubation at 37° C. for 30 minutes. Malondialdehyde produced by the […] of lipid peroxidation was measured by a thiobarbituric acid process.
Tissue migration properties of the compounds of the present invention were evaluated by measuring an ex vivo lipid peroxidation inhibition. A solution or suspension prepared by dissolving or suspending each of test compounds in an aqueous physiological saline solution or a 1% poly oxy ethylene hydrogenated castor oil (NIKKOL HCO-60, manufactured by Nikko Chemicals Co., Ltd.) physiological saline solution was intraperitoneally administered to SD male rats (one group: 3 rats, 6 weeks old) (available from Nippon SLC Co., Ltd.) at a dose of 100 mg/kg. 30 Minutes after administration, rats were bled to death by cutting the carotid artery and then the brain, heart and kidney were extracted. A lipid peroxidation activity of each tissue homogenate was measured by the process described in Example 18. An inhibition ratio in each tissue of the compounds of the present invention was determined from the amount of lipid peroxidation produced of a control group (physiological saline administration group) and a test compound administration group.

[3] = tested on: abnormal behavior and fatality due to ferrous chloride; experiment: In vivo antioxidative activity: ferrous chloride administration into spinal subarachnoid cavity of mice; design: species or system Slc:ICR male mice; conditions: score after 60 minutes
Experimental: An in vivo antioxidative activity of the compounds of the present invention was evaluated from an abnormal behavior due to administration of ferrous chloride into spinal subarachnoid cavity of mice as well as an inhibitory effect of a fatality rate according to the process described in J. Med. Chem., 1997, Vol. 40, p. 559-573. Using Slc:ICR male mice (one group: 3 to 7 mice, 5 weeks old) (available from Nippon SLC Co., Ltd.), 5 μl of a 50 mM ferrous chloride physiological saline solution was administered to the spinal canal through the space between the fifth lumbar vertebrae and the sixth lumbar vertebrae. 20 to 60 minutes after administration of ferrous chloride, symptoms were observed and a score after 60 minutes was determined from symptoms shown in Table 32. […] As is apparent from the results, the compounds of the present invention have an in vivo antioxidation action.

[4] = target: T1, 15-LO obtained from reticulocyte of rabbit (Oryctolagus cuniculus, UniProt P12530); experiment: 15-lipoxygenase (15-LO) inhibitory activity, 15-HETE production; type: biochemical; conditions: 15-LO from reticulocyte of rabbit, linoleic acid
T1 construct: 15-LO obtained from reticulocyte of rabbit; from tissue; host or cells: rabbit reticulocytes
T1 sequence (P12530 1-663): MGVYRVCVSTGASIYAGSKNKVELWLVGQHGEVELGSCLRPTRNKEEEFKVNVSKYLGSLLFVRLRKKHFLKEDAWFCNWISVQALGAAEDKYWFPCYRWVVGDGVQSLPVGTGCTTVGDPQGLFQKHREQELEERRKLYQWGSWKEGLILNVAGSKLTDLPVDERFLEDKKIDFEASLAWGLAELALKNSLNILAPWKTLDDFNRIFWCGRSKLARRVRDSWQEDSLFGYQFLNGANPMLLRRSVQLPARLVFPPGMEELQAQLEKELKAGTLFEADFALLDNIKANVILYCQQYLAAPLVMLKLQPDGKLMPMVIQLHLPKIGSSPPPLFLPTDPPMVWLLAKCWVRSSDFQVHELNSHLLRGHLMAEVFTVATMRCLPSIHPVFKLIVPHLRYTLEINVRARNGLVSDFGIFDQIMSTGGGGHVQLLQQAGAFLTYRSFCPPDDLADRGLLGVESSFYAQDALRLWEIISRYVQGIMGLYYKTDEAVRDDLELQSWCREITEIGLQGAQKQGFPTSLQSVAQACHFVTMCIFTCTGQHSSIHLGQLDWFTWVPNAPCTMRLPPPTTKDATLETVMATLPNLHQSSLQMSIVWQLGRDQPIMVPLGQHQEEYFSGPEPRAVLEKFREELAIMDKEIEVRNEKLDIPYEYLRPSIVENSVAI
Experimental: A 15-LO inhibitory activity was measured by a partially modified process of a process of Auerbach et al. (Auerbach B. J, et al., Anal. Biochem.: 201, 375-80, 1992). That is, 15-LO obtained from reticulocyte of rabbit and each of test compounds dissolved in DMSO (final concentration: 1%) were preincubated (4° C., 15 minutes) in phosphoric acid buffer (pH 7.4) and 256 μM linoleic acid was further added, followed by incubation (4° C., 10 minutes). The amount of 15-HETE produced as a result of incubation was determined by spectrophotometry (OD660nm) and 50% production inhibitory concentration (μM) against 15-LO of each test compound was calculated. Compounds (R-3) and (R-4) (edaravone) of the following formulas were used as a control drug.

5-lipoxygenase (5-LO) = target: T2, 5-lipoxygenase (5-LO) (Homo sapiens, UniProt P09917); experiment: 5-lipoxygenase (5-LO) inhibitory activity, leukotriene B4 production in human peripheral blood mononuclear cells; type: cell-based; conditions: human peripheral blood mononuclear cells, A23187, leukotriene B4 production
T2 construct: human peripheral blood mononuclear cells and each of test compounds dissolved in DMSO (final concentration: 1%) were preincubated; endogenous in cells; host or cells: human peripheral blood mononuclear cells
T2 sequence (P09917 1-674): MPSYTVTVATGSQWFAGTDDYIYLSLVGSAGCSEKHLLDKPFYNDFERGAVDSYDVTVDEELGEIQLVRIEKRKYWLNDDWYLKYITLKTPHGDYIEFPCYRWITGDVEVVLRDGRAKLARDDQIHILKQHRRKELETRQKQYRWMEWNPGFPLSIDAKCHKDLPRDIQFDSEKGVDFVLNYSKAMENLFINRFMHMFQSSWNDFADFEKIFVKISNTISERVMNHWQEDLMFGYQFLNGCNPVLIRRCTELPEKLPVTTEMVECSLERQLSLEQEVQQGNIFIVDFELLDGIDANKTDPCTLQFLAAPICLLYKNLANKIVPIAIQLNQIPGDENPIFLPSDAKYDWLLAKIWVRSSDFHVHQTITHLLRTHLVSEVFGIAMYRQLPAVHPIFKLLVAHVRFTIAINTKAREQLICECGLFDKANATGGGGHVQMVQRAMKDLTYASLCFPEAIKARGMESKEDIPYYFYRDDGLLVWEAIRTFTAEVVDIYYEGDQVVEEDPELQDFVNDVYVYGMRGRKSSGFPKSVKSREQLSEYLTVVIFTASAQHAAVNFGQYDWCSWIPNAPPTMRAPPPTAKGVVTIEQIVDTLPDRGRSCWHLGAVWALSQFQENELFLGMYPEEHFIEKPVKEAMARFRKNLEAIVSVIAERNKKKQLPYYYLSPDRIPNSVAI
Experimental: A 5-LO inhibitory activity was measured by a partially modified process of a process of Carter et al. (Carter G. W, et al, J. Pharmacol. Exp. Ther.: 256, 929-37, 1991). That is, human peripheral blood mononuclear cells and each of test compounds dissolved in DMSO (final concentration: 1%) were preincubated (37° C., 15 minutes) in a Hanks' balanced salt solution and 30 μM A23187 was further added, followed by incubation (37° C., 30 minutes). The amount of leukotriene B4 produced as a result of incubation was determined by enzyme immunoassay and a 50% production inhibitory concentration (μM) against 5-LO of each test compound was calculated.

| Compound | Lipid peroxidation inhibition 30% inhibitory concentration (ID30, oral administration) in ex vivo retina [1] [mg/kg] | Ex vivo lipid peroxidation inhibition inhibition ratio (%) Brain ([2]; brain homogenate) [%] | Ex vivo lipid peroxidation inhibition inhibition ratio (%) Heart ([2]; heart homogenate) [%] | Ex vivo lipid peroxidation inhibition inhibition ratio (%) Kidney ([2]; kidney homogenate) [%] | In vivo antioxidation action 50% inhibitory concentration (ID50), Intraperitoneal administration ([3]; intraperitoneal administration 30 minutes before ferrous chloride into spinal canal) [mg/kg] | In vivo antioxidation action 50% inhibitory concentration (ID50), Oral administration ([3]; oral administration 30 minutes before ferrous chloride into spinal canal) [mg/kg] | melting point [°C] | IC50 [4] [µM] | IC50 (5-lipoxygenase (5-LO)) [nM] |
| --- | --- | --- | --- | --- | --- | --- | --- | --- | --- |
| Cc1c(C)c2c(c(C)c1N)CC(C)(CN1CCN(c3ccc(-n4ccnc4)cc3)CC1)O2 (racemic) [Compound B-1-2, 4-(±)-(5-amino-2,4,6,7-tetramethyldihydrobenzofuran-2-ylmethyl)-1-(4-imidazol-1-ylphenyl)piperazine] | 5.7 | 79 | 93 | 89 | 27 | 13 | – | – | – |
| Cc1c(C)c2c(c(C)c1N)CC(C)(CN1CCN(c3ccc(-c4ccn[nH]4)cc3)CC1)O2 (stereo not drawn) [Compound B-1-34] | – | – | – | – | – | – | 205 to 207 | 5.56 | 162 |
